Data set [1] relates to Mia-Pa-Ca-2. The data set is described as follows: CellTiterGlo cell viability assay, Mia-Pa-Ca-2. It counts as cell-based. The settings on record: Homo sapiens, MIA PaCa-2, Mia-Pa-Ca-2, 72 h; for EC50: absolute EC50, read-out: Ab EC50; for inhibition at 198 µM: percentage inhibition at the highest concentration tested, read-out: Top Inhibit. On the procedure:
A subset of compounds of the invention were assayed for their cytotoxic activity in an array of different solid tumours and haematological malignancies using the following assay.
In vitro viability assay were performed to assess the effects of compounds on cell viability in selected cell lines over 72 h using the CellTiterGlo (CTG, Promega-G7573) assay. The tests were performed in duplicates with treatment of compounds at 9 points, 3.16 folds titration in 96 well plates over ˜72 h. The compound starting concentrations were 198 μM. Cell viability assay using CellTiterGlo in 96-well plate were performed. Compound treatment 72 h, standard growth conditions, duplicates. Compounds were dissolved to 40 mM with thawed […]. Compounds were serially diluted at 3.16 fold in thawed DMSO, and warmed to 37° C. before being dissolved in media (2 μL+200 μL). After compounds were dissolved in media, media containing compounds were warmed to 37° C. in incubator and then compounds in media were added to cell plates (50 μL+50 μL) in duplicates. The compounds' final concentrations were from 198 μM to 19.8 nM. All compound solubilities were checked and recorded again, then the plates were transferred to CO2 tissue culture incubator immediately and incubated for 3 days. DMSO final concentration is 0.5%. The parent nucleoside in each case was tested as a comparator, as was an exemplary ProTide. The drugs of the ProTide class that were tested were as follows:
The following cell lines were tested and are referred to in the Table 1 below:
In Tables 2, 3 and 4, ‘Ab EC50’ refers to the absolute EC50 and ‘Top inhibit’ refers to the percentage inhibition achieved at the highest concentration tested.
(In general: Cellular ATP, detected with luciferase, serves as a proxy for viable cell number.)

The subject of data set [2] is RL. Briefly: CellTiterGlo cell viability assay, RL. The format is cell-based. The settings on record: Homo sapiens, 72 h. Summed up:
(§1)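 Cells were treated in duplicate for 72 h under standard growth conditions with a 9-point, 3.16-fold compound series at final concentrations of 198 μM to 19.8 nM in 0.5% DMSO. Viability was measured by CellTiterGlo luminescence, and absolute EC50 and percent inhibition at the top concentration were derived.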

For data set [3], the system named is K562. The data set is described as follows: CellTiterGlo cell viability assay, K562. The format is cell-based. The procedure, abridged: as §1
Data set [4] deals with HT29. Briefly: CellTiterGlo cell viability assay, HT29. It counts as cell-based. The settings on record: Homo sapiens, HT29, 72 h; for EC50: read-out: Ab EC50; for inhibition at 198 µM: percentage inhibition at the highest concentration tested, read-out: Top Inhibit. Summed up: as §1
Data set [5] deals with RPMI-8226. The data set is described as follows: CellTiterGlo cell viability assay, RPMI-8226. It counts as cell-based, Human. Summed up:
as §1

For data set [6], the system named is MOLT-4. Briefly: CellTiterGlo cell viability assay, MOLT-4. It counts as cell-based. Summed up:
as §1

Data set [7] deals with HL-60. The data set is described as follows: CellTiterGlo cell viability assay, HL-60. The settings on record: Homo sapiens, HL-60, 72 h; for inhibition at 198 µM: read-out: Top Inh. It counts as cell-based. Summed up: as §1
A short description of data set [8]: in vitro. The settings on record: human, pH 7.3.
In data set [9] the test system is CCRF-CEM. The data set is described as follows: CellTiterGlo cell viability assay, CCRF-CEM. The format is cell-based. The settings on record: 72 h; for EC50: read-out: Ab EC50; for inhibition at 198 µM: percentage inhibition at the highest concentration tested, read-out: Top Inh. Summed up:
as §1

The test system of data set [10] is MCF-7. The data set is described as follows: CellTiterGlo cell viability assay, MCF-7. It counts as cell-based. The settings on record: MCF-7, 72 h; for EC50: read-out: Ab EC50; for inhibition at 198 µM: percentage inhibition at the highest concentration tested, read-out: Top Inhibit. The procedure, abridged:
as §1

For data set [11], the system named is OVCAR 3. The data set is described as follows: CellTiterGlo cell viability assay, OVCAR 3. The format is cell-based. The settings on record: Homo sapiens, OVCAR 3, 72 h; for EC50: read-out: Ab EC50; for inhibition at 198 µM: percentage inhibition at the highest concentration tested, read-out: Top Inhibit. The procedure, abridged:
as §1

The subject of data set [12] is HepG2. Briefly: CellTiterGlo cell viability assay, HepG2. The format is cell-based. The settings on record: Homo sapiens, HepG2, 72 h; for EC50: read-out: Ab EC50; for inhibition at 198 µM: percentage inhibition at the highest concentration tested, read-out: Top Inhibit. The procedure, abridged:
as §1

Data set [13] relates to KG-1. Briefly: CellTiterGlo cell viability assay, KG-1. It counts as cell-based. The settings on record: Homo sapiens, KG-1, 72 h. Summed up:
as §1

Where [14] appears, read: absolute EC50, numeric values, read-out: Ab EC50.
The mark [15] stands for this setting: percentage inhibition at the highest concentration tested, read-out: Top Inh.
The mark [16] stands for this setting: Homo sapiens; K562, 72 h, absolute EC50, numeric values; read-out: Ab EC50.
Setting [17] is: HT-29, 72 h, absolute EC50, numeric values.
Where [18] appears, read: Homo sapiens, MOLT-4, 72 h, percentage inhibition at the highest concentration tested, read-out: Top Inh.
Where [19] appears, read: Homo sapiens; MOLT-4, 72 h, absolute EC50, numeric values; read-out: Ab EC50.
Setting [20] is: percentage inhibition at the highest concentration tested.
Setting [21] is: HT-29, absolute EC50, numeric values.
Where [22] appears, read: Homo sapiens; RPMI-8226, 72 h, absolute EC50, numeric values; read-out: Ab EC50.
[23] abbreviates: Homo sapiens; RPMI-8226, 72 h, percentage inhibition at the highest concentration tested; read-out: Top Inh.

Molecules are shown by their SMILES. Structures can show the parent of a compound that is named as a salt. Where two headings read alike, the source gives them in different places.

A word on the EC50: it is the concentration at which the effect is half-maximal. A word on the half-life: it is how long it takes for the measured level to halve. For `C[C@H](NP(=O)(Oc1ccccc1)OP(=O)(O)OC[C@@H]1C[C@H](OP(=O)(O)OP(=O)(N[C@@H](C)C(=O)OCc2ccccc2)Oc2ccccc2)[C@H](n2cnc3c(N)ncnc32)O1)C(=O)OCc1ccccc1` (stereo partly drawn) [Example 7, 3′-Deoxyadenosine-5′,2′-Bis-O-[phenyl(benzoxy-L-alaninyl)]-diphosphate Triethylammonium Salt], the EC50 in data set [1] is 3.32 µM; in data set [2] (setting [14]), 11.1 µM; in [3] (setting [16]), 9.16 µM; in data set [4] (setting [17]) it was 7.79 µM; in data set [5] (Homo sapiens, RPMI-8226, 72 h, absolute EC50, numeric values, read-out: Ab EC50) it was 1.6 µM; in [6] (setting [19]) it was 25.3 µM. Besides, the EC50 in data set [7] (setting [14]) stood at 6.97 µM. The inhibition at 198 µM in [1] was 98.9%; in data set [2] (setting [15]), 93%; in data set [3] (Homo sapiens, K562, 72 h, percentage inhibition at the highest concentration tested; read-out: Top Inh), 94%; in data set [4] (HT-29, 72 h) it was 79%; in data set [5] (Homo sapiens, RPMI-8226, 72 h, percentage inhibition at the highest concentration tested, read-out: Top Inh) it was 98%; in data set [6] (setting [18]), 90%. Also, the inhibition at 198 µM in [7] (setting [20]) was found to be 100%. For the same compound, the half-life in [8] (hepatocytes) stood at 27 min.
As to `Nc1ncnc2c1ncn2[C@@H]1O[C@H](CO)C[C@H]1O` [Cordycepin, reference compound], the EC50 in data set [1] is 84.7 µM; in data set [2] (setting [14]), over 198 µM; in [3] (setting [16]), 118 µM; in [4] (setting [21]) it was 32.7 µM; in [5] (setting [22]), over 198 µM; in data set [6] (setting [19]) it was 101 µM. The EC50 in data set [7] (setting [14]) stood at 118 µM. Besides, the inhibition at 198 µM in [1] was determined as 88%; in data set [2] (setting [15]), 16.6%; in data set [3] (Homo sapiens; K562, 72 h, percentage inhibition at the highest concentration tested; read-out: Top Inh), 94%; in data set [4] (HT-29) it was 87%; in data set [5] (setting [23]), 17%; in data set [6] (Homo sapiens; MOLT-4, 72 h, percentage inhibition at the highest concentration tested; read-out: Top Inh) it was 76.5%. The inhibition at 198 µM in data set [7] (setting [20]) was 56%. Further, the half-life in data set [8] (hepatocytes) was 48 min.
In the case of `O=c1[nH]c(=O)n([C@H]2C[C@H](O)[C@@H](CO)O2)cc1F` [FUDR, 5-fluoro-2′-deoxyuridine, reference compound], the EC50 in [9] (Homo sapiens, absolute EC50, numeric values) worked out at 0.04 µM; in [1], 0.35 µM; in data set [10] (Homo sapiens, MCF7, absolute EC50, numeric values) it was 7.23 µM; in [4] (setting [21]) it was 0.22 µM; in data set [11] (absolute EC50, numeric values) it was 2.32 µM; in [12] (absolute EC50, numeric values), 84 µM. Further, in [5] (setting [22]), the EC50 is 0.11 µM. The inhibition at 198 µM was determined as 91.9% in data set [9] (Homo sapiens); 90% in data set [1]; 73% in data set [10] (Homo sapiens, MCF7); 82% in [4] (HT-29); 66% in [11]; 61% in data set [12]. For the same compound, the inhibition at 198 µM in data set [5] (setting [23]) is 99%. This compound also returned a half-life at 1 μM in [8] (pooled cryopreserved hepatocytes) of 69 min.
`C[C@H](NP(=O)(Oc1cccc2ccccc12)OP(=O)(O)OC[C@H]1O[C@@H](n2c(Cl)nc3c(N)ncnc32)[C@@H](O)C1O)C(=O)OCc1ccccc1` (stereo partly drawn) [Example 5, 8-Chloroadenosine-5′-O-[1-naphthyl-(benzoxy-L-alaninyl)]diphosphate Triethylammonium Salt]: the EC50 in data set [1] was 0.43 µM; in data set [10] (Homo sapiens, MCF7, 72 h, absolute EC50, numeric values), 1.69 µM; in data set [4] (setting [17]) it was 1.41 µM. The inhibition at 198 µM in data set [1] was 87.6%; in data set [10] (Homo sapiens, MCF7, 72 h), 88%; in data set [4] (HT-29, 72 h), 76.5%. Moreover, in [8] (hepatocytes), the half-life came out at 18 min.
Turning to `C[C@H](NP(=O)(OC[C@H]1O[C@@H](n2cnc3c(N)nc(Cl)nc32)[C@H](F)C1O)Oc1ccccc1)C(=O)OCc1ccccc1` (stereo partly shown) [A, reference compound], the EC50 is under 0.2 µM in [9] (Table 4 classes); under 0.2 µM in data set [9] (Homo sapiens, Table 3 classes); 5 to 10 µM in data set [10] (Homo sapiens, MCF7, Table 3 classes); 5 to 10 µM in data set [10] (Table 4 classes); 0.2 to 1 µM in [13] (read-out: Ab EC50); 2 to 5 µM in [2] (read-out: Ab EC50, RL, 72 h, Table 3 classes). In addition, the EC50 in data set [2] (read-out: Ab EC50, RL, 72 h, Table 4 classes) is 1 to 5 µM; in [3] (Homo sapiens, K562, 72 h, read-out: Ab EC50), over 10 µM; in data set [3] (read-out: Ab EC50; K 562, 72 h, Table 4 classes), over 10 µM; in data set [4] (HT-29, 72 h, Table 3 classes) it was 2 to 5 µM; in data set [4] (HT-29, 72 h, Table 4 classes), 1 to 5 µM; in data set [11] (Table 4 classes), over 10 µM. In addition, the EC50 lay in the range of 5 to 10 µM in data set [12] (Table 4 classes); 2 to 5 µM in data set [5] (Homo sapiens, RPMI-8226, 72 h, read-out: Ab EC50, RPMI-8226, 72 h, Table 3 classes); 1 to 5 µM in data set [5] (Homo sapiens, RPMI-8226, 72 h, read-out: Ab EC50, RPMI-8226, 72 h, Table 4 classes); 0.2 to 2 µM in [6] (Homo sapiens, MOLT-4, 72 h, Table 3 classes, read-out: Ab EC50); 0.2 to 1 µM in data set [6] (Homo sapiens, MOLT-4, 72 h, Table 4 classes, read-out: Ab EC50); 0.2 to 2 µM in [7] (read-out: Ab EC50, HL-60, 72 h, Table 3 classes). For the same compound, the EC50 in data set [7] (read-out: Ab EC50, HL-60, 72 h, Table 4 classes) is 0.2 to 1 µM. The inhibition at 198 µM in [9] (Homo sapiens) turned out to be 99.4%; in [10] (Homo sapiens, MCF7, 72 h) it was 99.6%; in data set [13] (read-out: Top Inhibit), 93%; in [2] (read-out: Top Inh, RL, 72 h, percentage inhibition at the highest concentration tested), 99.8%; in data set [4] (HT-29, 72 h), 94%; in data set [11], 94%. Besides, the inhibition at 198 µM in [12] was 99%; in [5] (Homo sapiens, RPMI-8226, 72 h, read-out: Top Inh, RPMI-8226, 72 h, percentage inhibition at the highest concentration tested), 97%; in data set [6] (setting [18]) it was 93%; in [7] it was 97%. The same compound came in with a half-life at 1 μM in data set [8] (hepatocytes) of 24 min.

The record behind these values is patent publication US11560400B2, “Salts of diphosphate phosphoramidate of nucleosides as anticancer compounds” (NuCana plc, priority 2017, dated 2023).
